Laboratory results taken from ChEMBL document CHEMBL4418299, “Compounds useful as csf1 modulators” (2016).

What was measured:
[1] = molecular target: Macrophage colony-stimulating factor 1 receptor (Homo sapiens, UniProt P07333); assay: Displacement of kinase tracer 236 from recombinant human His-tagged CSF1R cytoplasmic domain (538 to 910 residues) expressed in baculovirus-infected insect cells measured after 5 hrs by TR-FRET based LanthaScreen assay
[2] = molecular target: Vascular endothelial growth factor receptor 2 (Homo sapiens, UniProt P35968); assay: Displacement of kinase tracer 236 from recombinant human His-tagged KDR cytoplasmic domain (789 to 1356 residues) expressed in baculovirus-infected insect cells measured after 5 hrs by TR-FRET based LanthaScreen assay
Sequence of Vascular endothelial growth factor receptor 2 (P35968 whole entry, the tested form may be a part): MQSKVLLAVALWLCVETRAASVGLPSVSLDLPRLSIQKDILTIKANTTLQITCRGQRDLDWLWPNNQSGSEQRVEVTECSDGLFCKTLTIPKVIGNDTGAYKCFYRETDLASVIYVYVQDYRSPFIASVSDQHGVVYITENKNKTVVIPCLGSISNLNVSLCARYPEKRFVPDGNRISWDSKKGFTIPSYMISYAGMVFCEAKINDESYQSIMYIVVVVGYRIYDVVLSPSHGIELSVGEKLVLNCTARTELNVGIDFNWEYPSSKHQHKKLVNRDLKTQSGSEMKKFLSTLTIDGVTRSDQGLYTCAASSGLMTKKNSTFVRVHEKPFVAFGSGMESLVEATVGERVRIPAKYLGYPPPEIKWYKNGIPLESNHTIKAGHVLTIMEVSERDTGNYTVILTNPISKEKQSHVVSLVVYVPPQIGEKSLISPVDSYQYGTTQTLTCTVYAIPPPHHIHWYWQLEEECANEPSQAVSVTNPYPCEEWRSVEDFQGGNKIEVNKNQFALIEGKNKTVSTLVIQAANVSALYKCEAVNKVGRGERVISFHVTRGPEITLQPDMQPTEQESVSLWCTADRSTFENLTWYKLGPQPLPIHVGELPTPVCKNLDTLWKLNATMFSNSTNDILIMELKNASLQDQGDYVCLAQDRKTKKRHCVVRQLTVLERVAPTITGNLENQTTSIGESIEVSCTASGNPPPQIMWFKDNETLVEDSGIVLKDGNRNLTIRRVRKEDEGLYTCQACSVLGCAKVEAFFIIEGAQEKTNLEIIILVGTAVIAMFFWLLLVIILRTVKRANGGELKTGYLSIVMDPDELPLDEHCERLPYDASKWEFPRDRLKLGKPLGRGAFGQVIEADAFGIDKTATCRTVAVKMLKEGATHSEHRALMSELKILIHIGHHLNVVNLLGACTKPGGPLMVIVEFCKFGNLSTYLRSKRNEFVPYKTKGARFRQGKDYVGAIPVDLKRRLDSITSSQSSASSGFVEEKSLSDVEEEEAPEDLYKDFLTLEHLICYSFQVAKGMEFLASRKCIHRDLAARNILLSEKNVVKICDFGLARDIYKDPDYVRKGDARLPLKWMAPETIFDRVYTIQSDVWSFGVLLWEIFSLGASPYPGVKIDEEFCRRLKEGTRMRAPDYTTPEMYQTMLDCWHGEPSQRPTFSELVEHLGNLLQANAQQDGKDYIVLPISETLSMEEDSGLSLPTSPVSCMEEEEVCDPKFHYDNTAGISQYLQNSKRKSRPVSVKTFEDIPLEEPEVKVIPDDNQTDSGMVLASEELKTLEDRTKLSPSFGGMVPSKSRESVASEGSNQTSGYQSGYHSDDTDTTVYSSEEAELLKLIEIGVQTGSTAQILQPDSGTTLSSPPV

Sequence of Macrophage colony-stimulating factor 1 receptor (P07333 whole entry, the tested form may be a part): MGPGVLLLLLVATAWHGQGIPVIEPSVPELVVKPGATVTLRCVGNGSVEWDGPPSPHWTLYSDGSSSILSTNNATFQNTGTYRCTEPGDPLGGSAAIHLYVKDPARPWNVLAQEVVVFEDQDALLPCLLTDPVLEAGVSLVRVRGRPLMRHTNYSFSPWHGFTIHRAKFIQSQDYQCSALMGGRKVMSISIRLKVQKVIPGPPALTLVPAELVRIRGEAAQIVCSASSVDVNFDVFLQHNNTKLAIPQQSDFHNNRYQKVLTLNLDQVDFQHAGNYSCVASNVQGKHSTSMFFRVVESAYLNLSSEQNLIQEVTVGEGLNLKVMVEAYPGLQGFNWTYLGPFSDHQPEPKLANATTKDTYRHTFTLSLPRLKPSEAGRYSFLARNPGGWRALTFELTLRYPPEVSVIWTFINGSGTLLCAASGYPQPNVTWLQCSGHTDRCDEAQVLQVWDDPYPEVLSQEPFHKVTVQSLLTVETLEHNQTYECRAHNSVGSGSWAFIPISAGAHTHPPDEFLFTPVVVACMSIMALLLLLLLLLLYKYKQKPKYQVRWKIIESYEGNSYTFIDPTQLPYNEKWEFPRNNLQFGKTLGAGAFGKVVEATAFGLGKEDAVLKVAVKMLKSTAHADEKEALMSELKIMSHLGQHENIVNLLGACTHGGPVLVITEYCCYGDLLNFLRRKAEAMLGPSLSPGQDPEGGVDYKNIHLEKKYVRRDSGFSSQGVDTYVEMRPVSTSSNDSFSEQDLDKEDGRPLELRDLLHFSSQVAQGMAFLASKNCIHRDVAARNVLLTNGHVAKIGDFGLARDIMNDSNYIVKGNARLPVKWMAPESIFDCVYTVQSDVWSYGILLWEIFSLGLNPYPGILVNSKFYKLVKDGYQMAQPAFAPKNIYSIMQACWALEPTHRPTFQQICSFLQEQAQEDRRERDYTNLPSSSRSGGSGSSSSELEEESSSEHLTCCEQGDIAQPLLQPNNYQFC

SMILES | IC50 [1] [nM] | IC50 [2] [nM]
COc1cc(-n2c3c(c4ncnc(N)c42)CCC3)ccc1CC(=O)Nc1ccc(Cl)c(C(F)(F)F)c1 | < 10 | > 200
Nc1ncnc2c3c(n(-c4ccc(CC(=O)Nc5ccc(C(F)(F)F)nn5)cc4)c12)CCC3 | 10 to 200 | > 200
Nc1ncnc2c3c(n(-c4ccc(NC(=O)Cc5ccc(Cl)cc5)cc4)c12)CCC3 | < 10 | > 200
COc1ccc(NC(=O)Cc2ccc(-n3c4c(c5ncnc(N)c53)CCC4)cc2)cc1C(F)(F)F | < 10 | 10 to 200
Nc1ncnc2c3c(n(-c4ccc(NC(=O)Cc5ccc6c(c5)CCN6CC(F)(F)F)cc4)c12)CCC3 | < 10 | > 200
Nc1ncnc2c3c(n(-c4ccc(NC(=O)Cc5ccc(F)cc5C(F)(F)F)cc4)c12)CCC3 | < 10 | > 200
Nc1ncnc2c3c(n(-c4ccc(CC(=O)NC5CCOCC5)cc4)c12)CCC3 | > 200 | > 200
COc1cc(-n2c3c(c4ncnc(N)c42)CCC3)ccc1NC(=O)Cc1ccc2c(c1)CCN2CC(F)(F)F | < 10 | > 200
Nc1ncnc2c3c(n(-c4ccc(CC(=O)Nc5ccc(OC(F)(F)F)cc5)cc4)c12)COC3 | 10 to 200 | > 200
CC(C(=O)Nc1ccc(-n2c3c(c4ncnc(N)c42)CCC3)cc1)c1ccccc1 (stereo not drawn) | 10 to 200 | > 200
COc1cc(-n2c3c(c4ncnc(N)c42)CCC3)ccc1CC(=O)Nc1ccc(Cl)c(Cl)c1 | < 10 | > 200
COc1cc(-n2c3c(c4ncnc(N)c42)CCC3)ccc1NC(=O)Cc1ccc(OC(F)(F)F)cc1 | < 10 | > 200
COc1ccc(CC(=O)Nc2ccc(-n3c4c(c5ncnc(N)c53)CCC4)cc2)cn1 | < 10 | > 200
Nc1ncnc2c3c(n(-c4ccc(CC(=O)Nc5cc(C(F)(F)F)ccc5F)cc4)c12)CCC3 | < 10 | 10 to 200
COc1cc(CC(=O)Nc2ccc(-n3c4c(c5ncnc(N)c53)CCC4)cc2)ccc1C | < 10 | > 200
Cc1ccc(CC(=O)Nc2ccc(-n3c4c(c5ncnc(N)c53)CCC4)cc2)c(F)c1 | < 10 | 10 to 200
COc1ccc(CC(=O)Nc2ccc(-n3c4c(c5ncnc(N)c53)CCC4)cc2)c(F)c1 | < 10 | > 200
Nc1ncnc2c3c(n(-c4ccc(CC(=O)Nc5ccc(C(F)(F)F)c(Cl)c5)cc4)c12)CCC3 | < 10 | > 200
Nc1ncnc2c3c(n(-c4ccc(NC(=O)Cc5ccc(F)cc5)cc4)c12)CCC3 | < 10 | > 200

SMILES | IC50 [1] [nM] | IC50 [2] [nM]
Nc1ncnc2c3c(n(-c4ccc(CC(=O)Nc5ccc(Cl)c(C(F)(F)F)c5)cc4)c12)CCC3 | 9 | > 200
Nc1ncnc2c3c(n(-c4ccc(CC(=O)Nc5ccc(Cl)c(Cl)c5)cc4)c12)CCC3 | < 10 | > 200
Nc1ncnc2c3c(n(-c4ccc(NC(=O)Cc5ccccc5)c(F)c4)c12)COC3 | > 200 | > 200
COc1ccc(NC(=O)Cc2ccc(-n3c4c(c5ncnc(N)c53)COC4)cc2)cc1C(F)(F)F | < 10 | 10 to 200
Nc1ncnc2c3c(n(-c4ccc(NC(=O)Cc5ccnc(C(F)(F)F)c5)cc4)c12)CCC3 | < 10 | > 200
Nc1ncnc2c3c(n(-c4ccc(CC(=O)Nc5ccc(C(F)(F)F)cn5)cc4)c12)CCC3 | 10 to 200 | > 200
COc1cc(-n2c3c(c4ncnc(N)c42)CCC3)ccc1CC(=O)Nc1cc(C(F)(F)F)ccc1F | < 10 | > 200
COc1ccc(CC(=O)Nc2ccc(-n3c4c(c5ncnc(N)c53)CCC4)cc2)cc1F | < 10 | > 200
Nc1ncnc2c3c(n(-c4ccc(CC(=O)Nc5nc(C(F)(F)F)co5)cc4)c12)CCC3 | 10 to 200 | > 200
COc1ccc(NC(=O)Cc2ccc(-n3c4c(c5ncnc(N)c53)CCC4)cc2)cc1F | < 10 | > 200
Nc1ncnc2c3c(n(-c4ccc(NC(=O)Cc5cc(C(F)(F)F)ccc5F)c(F)c4)c12)CCC3 | 10 to 200 | > 200
Nc1ncnc2c3c(n(-c4ccc(NC(=O)Cc5cccc(O)c5)cc4)c12)CCC3 |  | > 200
Nc1ncnc2c3c(n(-c4ccc(NC(=O)Cc5ccc(OC(F)(F)F)cc5)cc4)c12)CCC3 |  | > 200
Nc1ncnc2c3c(n(-c4ccc(NC(=O)CN5CCOCC5)cc4)c12)CCC3 | > 200 | 
Nc1ncnc2c3c(n(-c4ccc(NC(=O)Cc5ccn(C(F)F)n5)cc4)c12)COC3 | > 200 | 
COc1cc(-n2c3c(c4ncnc(N)c42)COC3)ccc1NC(=O)Cc1cc(C(F)(F)F)ccc1F | 10 to 200 | 
COc1ccc(CC(=O)Nc2ccc(-n3c4c(c5ncnc(N)c53)CCC4)cc2OC)cc1F | < 10 | 
Nc1ncnc2c3c(n(-c4ccc(NC(=O)Cc5cccnc5)cc4)c12)CCC3 | 10 to 200 | 
COc1cc(-n2c3c(c4ncnc(N)c42)COC3)ccc1NC(=O)Cc1nccc(C(F)(F)F)n1 | > 200 | 
